Like-named read-outs stand apart in the source and are kept apart here.
How the values were obtained:
[1] = system: recombinant Zaire EBOV expressing green fluorescent protein (GFP-ZEBOV); test: microbe, parasite or virus in culture; assay type: cell-based, EBOV (Zaire subtype, 1995 strain)
[2] = system: HIV/EBOV-GP pseudotype virus; test: microbe, parasite or virus in culture; assay type: cell-based, EBOV Zaire strain; conditions: for inhibition at 25 µM: read-out: Inhibition of pseudotype virus at 25 μM in 293T cells (%) HIV/EBOV-GP
in vitro [3] = conditions: human
in vitro [4] = conditions: African green monkey
[5] = system: HIV/VSV-G pseudotype virus; test: microbe, parasite or virus in culture; assay type: cell-based, vesicular stomatitis virus; conditions: for inhibition at 25 µM: Human immunodeficiency virus 1, HEK-293T, read-out: Inhibition of pseudotype virus at 25 μM in 293T cells (%) HIV/VSV-GP
[6] = system: HIV/EBOV-GP pseudotype virus; test: microbe, parasite or virus in culture; assay type: cell-based, EBOV Zaire strain; conditions: Human immunodeficiency virus 1, HEK-293T
Vero E6 cells = conditions: African green monkey
EboZ replication = conditions: read-out: IC50, EboZ replication in vitro; cited from earlier work
[7] = system: HIV/EBOV-GP pseudotype virus; assay type: cell-based, EBOV Zaire strain
[8] = system: HIV/VSV-G pseudotype virus; assay type: cell-based, vesicular stomatitis virus
[9] = system: HIV/LASV-GP pseudotype virus; test: microbe, parasite or virus in culture; assay type: cell-based, Lassa virus (LASV)
[10] = system: HIV/HA(H5) pseudotype virus; test: microbe, parasite or virus in culture; assay type: cell-based, influenza virus subtype H5
[11] = system: HIV/MARV-GP pseudotype virus; test: microbe, parasite or virus in culture; assay type: cell-based, MARV (Lake Victoria strain)
[12] = system: HIV/EBOV-GP pseudotype virus; assay type: cell-based, EBOV Zaire strain; remark: listed apart in the source
VSV-G = VSV-G (Vesicular stomatitis Indiana virus, UniProt P03522); assay type: cell-based; conditions: pH 5
Sequence of VSV-G (P03522 17-511 limits assumed): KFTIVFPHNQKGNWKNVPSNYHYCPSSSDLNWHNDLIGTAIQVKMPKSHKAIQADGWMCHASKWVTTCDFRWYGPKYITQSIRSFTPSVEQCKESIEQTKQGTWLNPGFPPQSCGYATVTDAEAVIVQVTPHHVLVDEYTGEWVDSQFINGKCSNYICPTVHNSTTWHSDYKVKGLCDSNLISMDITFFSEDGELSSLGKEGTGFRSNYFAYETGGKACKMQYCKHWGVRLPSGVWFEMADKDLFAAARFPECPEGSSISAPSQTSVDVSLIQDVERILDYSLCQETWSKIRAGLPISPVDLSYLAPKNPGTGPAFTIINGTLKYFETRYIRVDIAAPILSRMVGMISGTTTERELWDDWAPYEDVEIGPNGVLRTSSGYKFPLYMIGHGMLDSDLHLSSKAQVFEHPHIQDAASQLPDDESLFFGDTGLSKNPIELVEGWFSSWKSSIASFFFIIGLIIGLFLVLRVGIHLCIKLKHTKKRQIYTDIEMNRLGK

EBOV Δmucin GP = assay type: cell-based; conditions: pH 5
[13] = Zaire ebolavirus, Vero C1008, 48 h, read-out: GFP-ZEBOV IC50 (μM)
[14] = Zaire ebolavirus, Vero C1008, 48 h, read-out: GFP-ZEBOV IC90 (μM)
[15] = Human immunodeficiency virus 1, HEK-293T, read-out: HIV/EBOV-Gp IC90 (μM)
[16] = Human immunodeficiency virus 1, HEK-293T, read-out: IC90 (μM) against HIV/EBOV-GP
[17] = Human immunodeficiency virus 1, HEK-293T
[18] = read-out: inhibition of HIV/EBOV-GP infection, Assay 3: compounds pre-incubated with the virus for 1 hour at 37° C.
[19] = read-out: inhibition of infection, Assay 4: compounds pre-incubated with 293T cells at 4° C. before virus
[20] = Human immunodeficiency virus 1, read-out: HIV/LASV-GP IC90 (μM)
[21] = Human immunodeficiency virus 1, read-out: HIV/HA (H5) IC90 (μM)
[22] = Human immunodeficiency virus 1, read-out: HIV/MARV-GP IC90 (μM)
[23] = Zaire ebolavirus, Vero C1008, read-out: Infectious EBOV IC50 (μM)
[24] = Human immunodeficiency virus 1, HEK-293T, read-out: HIV/EBOV-GP IC90 (μM)

## CCCN(C)c1c([N+](=O)[O-])cc([N+](=O)[O-])c2cccnc12 [A, 5,7-dinitro-8-[methyl(propyl)amino]quinoline]
[1]; [13]
  IC50: 7.5 µM
[1]; [14]
  IC90: 10 µM
[2]; [15]
  IC90: 18.4 µM
[2]; [16]
  IC90: 18.4 µM
[2]; [17]
  inhibition at 25 µM: 98%
In vitro [3]
  CC50: 30 µM
In vitro [4]; GFP-ZEBOV CC50 (μM)
  CC50: 15 µM
[5]
  inhibition at 25 µM: 25%

## COc1cccc(C(CC(=O)c2ccc(Cl)cc2)C(C#N)C#N)c1 (centres unmarked) [B]
[6]; [18]
  inhibition at 10 µM: > 75%
Vero E6 cells
  CC50: 51.5 µM
[1]; [13]
  IC50: 10 µM
[1]; [14]
  IC90: 20 µM
[2]; [15]
  IC90: 7.6 µM
[2]; [16]
  IC90: 7.6 µM
[2]; [17]
  inhibition at 25 µM: 100%
In vitro [3]
  CC50: 25 µM
In vitro [4]; GFP-ZEBOV CC50 (μM)
  CC50: > 50 µM
[5]
  inhibition at 25 µM: 10%

## Nc1nccc2c1ncn2[C@@H]1C[C@H](CO)[C@@H](O)[C@H]1O [C-c3Ado, carbocyclic adenosine analog 3-deazaadenosinc]
EboZ replication
  IC50: 30 µM

## CCCNC(=O)[C@H]1O[C@@H]1C(=O)N[C@H](C(=O)N1CCC[C@H]1C(=O)O)[C@@H](C)CC [CA-074]
[7]
  inhibition of HIV/EBOV-GP infection: strongly inhibited
[8]
  inhibition of HIV/VSV-G infectivity: not

## CC[C@@]1(O)C(=O)OCc2c1cc1n(c2=O)Cc2cc3ccccc3nc2-1 [C]
[6]; [18]
  inhibition at 10 µM: > 75%
[1]; [13]
  IC50: 10 µM
[1]; [14]
  IC90: 23.5 µM
[2]; [15]
  IC90: 0.8 µM
[2]; [16]
  IC90: 0.8 µM
[2]; [17]
  inhibition at 25 µM: 98%
In vitro [3]
  CC50: 20 µM
In vitro [4]; GFP-ZEBOV CC50 (μM)
  CC50: 29.5 µM
[5]
  inhibition at 25 µM: 0%

## CC1=CC(c2ccccc2)=Nc2cc3ccccc3cc2N1 [Compound G1]
[2]; [17]
  IC50: 88.3 µM

## Cc1cc2c(cc1C)N=C(C(F)(F)F)CC(c1ccc(Cl)cc1)=N2 [Compound G2]
[2]; [17]
  IC50: 72.1 µM

## FC(F)(F)C(F)(F)C1=Nc2ccccc2N=C(c2ccccc2)C1 [Compound G3]
[2]; [17]
  IC50: 70.9 µM

## FC(F)(F)C(F)(F)C1=Nc2cc(Cl)c(Cl)cc2N=C(c2ccccc2)C1 [Compound G4]
[2]; [17]
  IC50: 3.7 µM

## Oc1ccccc1C1=Nc2ccccc2N=C(C(F)(F)F)C1 [Compound G5]
[2]; [17]
  IC50: 70.7 µM

## Cc1ccc(C2=Nc3ccccc3N=C(C(F)(F)F)C2)cc1 [Compound G6]
[2]; [17]
  IC50: 75.7 µM

## COc1ccc(O)c(C2=Nc3ccccc3N=C(C(F)(F)F)C2)c1 [Compound G7]
[2]; [17]
  IC50: 85.7 µM

## Oc1ccccc1C1=Nc2ccccc2N=C(c2cccs2)C1 [Compound G8]
[2]; [17]
  IC50: > 100 µM

## Oc1ccc(Cl)cc1C1=Nc2ccccc2N=C(c2ccco2)C1 [Compound G9]
[2]; [17]
  IC50: > 100 µM

## COc1ccc(O)c(C2=Nc3ccccc3N=C(c3cccs3)C2)c1 [Compound G10]
[2]; [17]
  IC50: > 100 µM

## Oc1ccccc1C1=Nc2ccccc2N=C(c2ccco2)C1 [Compound G11]
[2]; [17]
  IC50: > 100 µM

## O=[N+]([O-])c1cccc(C2=Nc3ccccc3N=C(c3ccccc3O)C2)c1 [Compound G12]
[2]; [17]
  IC50: > 100 µM

## FC(F)C(F)(F)C1=Nc2ccccc2N=C(c2ccccc2)C1 [Compound G]
[9]; read-out: HIV/LASV-GP IC90
  IC90: > 50 µM
[10]; read-out: HIV/HA (H5) IC90
  IC90: > 50 µM
[11]; read-out: HIV/MARV-GP IC90
  IC90: 10 µM
[1]
  GFP-ZEBOV percentage in parentheses beside IC90 >25: >25 (70%)
[1]; read-out: GFP-ZEBOV IC50
  IC50: 10 µM
[1]; read-out: GFP-ZEBOV IC90
  IC90: > 25 µM
[1]; read-out: Infectious EBOV IC50
  IC50: 10 µM
[2]; 25 μM
  Inhibition of pseudotype virus at 25 μM in 293T cells (%) HIV/EBOV-GP: 96%
[2]; read-out: HIV/EBOV-GP IC90
  IC90: 12.1 µM
[2]; read-out: HIV/EBOV-Gp IC90
  IC90: 12.1 µM
[2]; read-out: IC50
  IC50: 12.1 µM
[2]; read-out: IC90 (μM) against HIV/EBOV-GP
  IC90: 20.1 µM
[12]
  inhibition, added at time 0 at 0° C. ("binding"): > 75%
293T cells
  CC50: 75 µM
[5]; 25 μM
  Inhibition of pseudotype virus at 25 μM in 293T cells (%) HIV/VSV-GP: 20%

## O=c1c2ccccc2nc(/C=C/c2ccc([N+](=O)[O-])o2)n1-c1cccc(C(F)(F)F)c1 [D]
[6]; [19]
  inhibition at 10 µM: > 75%
Vero E6 cells
  CC50: 62.5 µM
[1]
  GFP-ZEBOV percentage in parentheses beside IC90 >25: >25 (85%)
[1]; [13]
  IC50: 15.5 µM
[1]; [14]
  IC90: > 25 µM
[2]; [15]
  IC90: 1.1 µM
[2]; [16]
  IC90: 1.1 µM
[2]; [17]
  inhibition at 25 µM: 100%
In vitro [3]
  CC50: 30 µM
In vitro [4]; GFP-ZEBOV CC50 (μM)
  CC50: > 50 µM
[5]
  inhibition at 25 µM: 15%

## O=C(Nc1ccc(Cl)c(Cl)c1)c1ccc([N+](=O)[O-])o1 [E]
[1]; [13]
  IC50: 14.5 µM
[1]; [14]
  IC90: 20 µM
[2]; [15]
  IC90: 20.8 µM
[2]; [16]
  IC90: 20.8 µM
[2]; [17]
  inhibition at 25 µM: 98%
In vitro [3]
  CC50: 54 µM
In vitro [4]; GFP-ZEBOV CC50 (μM)
  CC50: 40 µM
[5]
  inhibition at 25 µM: 25%

## N=c1c2c(-c3ccccc3)c(-c3ccccc3)n(Cc3ccco3)c2ncn1CCCn1ccnc1 [F]
[6]; [19]
  inhibition at 10 µM: > 75%
[1]
  GFP-ZEBOV percentage in parentheses beside IC90 >25: >25 (78%)
[1]; [13]
  IC50: 15 µM
[1]; [14]
  IC90: > 25 µM
[2]; [15]
  IC90: 10.9 µM
[2]; [16]
  IC90: 10.9 µM
[2]; [17]
  inhibition at 25 µM: 98%
In vitro [3]
  CC50: 25 µM
In vitro [4]; GFP-ZEBOV CC50 (μM)
  CC50: 48.5 µM
[5]
  inhibition at 25 µM: 20%

## Cc1ccc(N(c2ccc(C)cc2)c2cccnc2)cc1 [H]
[1]
  GFP-ZEBOV percentage in parentheses beside IC90 >25: >25 (59%)
[1]; [13]
  IC50: 20 µM
[1]; [14]
  IC90: > 25 µM
[2]; [15]
  IC90: 23.5 µM
[2]; [16]
  IC90: 23.5 µM
[2]; [17]
  inhibition at 25 µM: 100%
In vitro [3]
  CC50: > 50 µM
In vitro [4]; GFP-ZEBOV CC50 (μM)
  CC50: 22.6 µM
[5]
  inhibition at 25 µM: 30%

## COc1ccc(OC)c(NC(=O)CC(c2ccc(OC)cc2OC)S(=O)(=O)c2ccccc2)c1 (centres unmarked) [I]
[9]; [20]
  IC90: > 50 µM
[10]; [21]
  IC90: > 50 µM
[11]; [22]
  IC90: 2.8 µM
[1]; [23]
  IC50: 4.6 µM
[2]; [24]
  IC90: 2.7 µM
[12]
  activity when added after virus infection (+1 h) ("fusion"): active
In vitro [3]
  CC50: 32 µM
In vitro [4]; Infectious EBOV CC50 (μM)
  CC50: 40 µM

## CCOc1ccc(NC(=O)CSc2nnc(COc3cccc(N(C)C)c3)n2-c2ccccc2)cc1 [K]
[9]; [20]
  IC90: > 50 µM
[10]; [21]
  IC90: > 50 µM
[11]; [22]
  IC90: 11 µM
[1]; [23]
  IC50: 2.5 µM
[2]
  selectivity index, third value column of Table 7 (head only in drawing): 39
[2]; [24]
  IC90: 2 µM
[2]; Human immunodeficiency virus 1, HEK-293T, read-out: antiviral potency, first value column of Table 7 (head only in drawing)
  IC50: 2.5 µM
[12]
  activity when added after virus infection (+1 h) ("fusion"): active
293T cells; human
  cytotoxicity, second value column of Table 7 (head only in drawing): 98
In vitro [3]
  CC50: 98 µM
In vitro [4]; Infectious EBOV CC50 (μM)
  CC50: 50 µM

## Bafilomycin
VSV-G
  inhibition of cell-cell fusion, VSV-G expressing cells: completely inhibited
EBOV Δmucin GP
  inhibition of cell-cell fusion, EBOV expressing cells: completely inhibited

Reference: US9101635B2 (priority 2009, dated 2015)
